What was measured:
Format in all cases: toxicity, cell-based
[1] = tested on: Fibroblast; test: Incucyte cell viability with human fibroblast; settings: 10 µM, compound concentration 10 uM
[2] = tested on: U2OS; test: Incucyte cell viability with U2OS; settings: human, 10 µM, compound concentration 10 uM
[3] = tested on: HEK-293T; test: Incucyte cell viability with HEK293T; settings: human, 10 µM, compound concentration 10 uM
[4] = 0 h, replicate number 1, timepoint 0 hours
[5] = 6 h, replicate number 1, timepoint 6 hours
[6] = 12 h, replicate number 1, timepoint 12 hours
[7] = 12 h, replicate number 2, timepoint 12 hours
[8] = 18 h, replicate number 1, timepoint 18 hours
[9] = 18 h, replicate number 2, timepoint 18 hours
[10] = 24 h, replicate number 1, timepoint 24 hours
[11] = 24 h, replicate number 2, timepoint 24 hours
[12] = 6 h, replicate number 2, timepoint 6 hours
[13] = 0 h, replicate number 2, timepoint 0 hours
Further: filed as whole numbers so only -1 and 0 and 1 occur.

| SMILES | Growth Rate [1, 4] | Growth Rate [1, 5] | Growth Rate [1, 6] | Growth Rate [1, 7] | Growth Rate [1, 8] | Growth Rate [1, 9] | Growth Rate [1, 10] | Growth Rate [1, 11] | Growth Rate [2, 4] | Growth Rate [2, 5] | Growth Rate [2, 12] | Growth Rate [2, 6] | Growth Rate [2, 8] | Growth Rate [2, 10] | Growth Rate [3, 4] | Growth Rate [3, 13] | Growth Rate [3, 8] | Growth Rate [3, 10] | Growth Rate [3, 5] | Growth Rate [3, 6] | other results |
| --- | --- | --- | --- | --- | --- | --- | --- | --- | --- | --- | --- | --- | --- | --- | --- | --- | --- | --- | --- | --- | --- |
| COCCOc1nc(-c2ccc(Cl)nc2)nc2c1CN(C(=O)c1ncn3ccccc13)CC2 [THPP-1] | 0 | 0 | 1 | 0 | 1 | 0 | 1 | 0 | 0 | 0 | 1 | 1 | 0 | 0 | 0 | 1 | 1 | 1 | – | – | Growth Rate [3, 12]: 0; Growth Rate [3, 7]: 0; Growth Rate [3, 11]: 0 |
| Cc1ccccc1C(=O)Nc1ccc(C(=O)N2CCCC(O)c3cc(Cl)ccc32)c(C)c1 (stereo unspecified) [TOLVAPTAN] | 1 | 0 | 1 | 0 | 1 | 0 | 1 | 0 | – | 0 | – | 0 | 0 | 1 | 1 | 0 | 0 | 0 | 0 | 0 | – |
| Cc1cc(-n2nc(Cc3cc(F)cc(C(F)(F)F)c3)nc2C)ccc1C(N)=O [TP-024] | 0 | 1 | 1 | 0 | 1 | 0 | 1 | 0 | – | 0 | 1 | 0 | 0 | 0 | 1 | 0 | 0 | 0 | 0 | 0 | Growth Rate [1, 13]: 1; Growth Rate [1, 12]: 0; Growth Rate [2, 7]: 1; Growth Rate [2, 9]: 1; Growth Rate [2, 11]: 1 |
| CN1CCc2c(c3ccccc3n2Cc2ccc(C(=O)NO)cc2)C1 [TUBASTATIN A] | 1 | – | – | 0 | 1 | 0 | 1 | – | 0 | 1 | – | 1 | 1 | 1 | 0 | 1 | – | – | – | – | Growth Rate [1, 12]: 0 |
| COc1cc(C(=O)NS(=O)(=O)c2ccccc2C)ccc1Cc1cn(C)c2ccc(NC(=O)OC3CCCC3)cc12 [ZAFIRLUKAST] | 0 | 1 | 0 | – | 1 | 0 | 0 | – | 0 | – | 1 | 1 | 1 | 1 | 0 | – | 1 | 1 | 1 | 1 | Growth Rate [1, 12]: 0; Growth Rate [3, 7]: 0; Growth Rate [3, 9]: 0; Growth Rate [3, 11]: 0 |

Source: ChEMBL document CHEMBL4689842, “EUbOPEN Chemogenomics Library wave 1” (2021)
